Data reported in patent US3957812A, “Derivatives of 2-phenoxyacetamido-5-nitro-thiazole” (priority 1973, dated 1976).
≈ marks a conversion by molar mass, not a printed value. Read-outs that look alike come from different tables or passages of the source.

How the values were obtained:
Entomoeba dysenteriae = assay: Test for amoebicidal activity; assay type: cell-based
From the text: (§1) Biological tests have been performed with a great number of compounds of formula (I) using the following techniques: (1) Test for amoebicidal activity described by R. CAVIER, Ann. pharm. franc., 1960, 18, pages 583-589 and by R. CAVIER, and J. CENAC, Bull. Soc. Path. exot. 1972, 65, pages 399-404. (2) Test for trichomonacidal activity described by R. CAVIER and P. BUOT, Ann. pharm. franc., 1964, 22, pages 211-216 and by R. CAVIER and J. CENAC, Semaine des Hopitaux, 1972, 48, pages 391-394). (3) Tests for anthelminthics described for nematodes (such as Syphacia obvelata) by R. CAVIER, Bull. Soc. Path. exot., 1962, 55, pages 412-417 and, for cestodes (such as Hymenolepis nana), by R. CAVIER, Ann. pharm. franc., 1956, 14, pages 545-552 and by R. CAVIER and M. J. NOTTEGHEM, Ann. pharm. franc. 1968, 28, pages 603-606.

Syphacia obvelata = assay type: in vivo; design: Percentage of activity: concentration or dose not given beside the values; settings: for Number of dead subjects (+): in vivo
From the text: as §1

Hymenolepis nana = assay: Test for anthelminthics, cestodes (Hymenolepis nana); assay type: in vivo; design: Percentage of activity: concentration or dose not given beside the values; settings: number of subjects 10
From the text: as §1

[1] = tested on: Trichophyton mentagrophytes; assay: Determination of fungistatic doses, T.m.; assay type: cell-based; settings: liquid Sabouraud medium, 25°C, 10 days; for MIC: Trichophyton mentagrophytes, 240 h, read-out: fungistatic dose, T.m
Protocol: (§2) (4) Method for determining fungistatic doses:
(§3) A liquide Sabouraud medium having the following composition is used:
(§4) If necessary, the pH is adjusted at 6.4 and the medium is sterilized.
(§5) The compounds are dissolved in dimethylformamide to which polyethylene glycol is sometimes added. From the mother-liquor, successive diluted solutions are prepared in the liquid Sabouraud medium, so as to obtain concentrations of 1, 3, 10, 30 100 and […] per ml. For the first dilution, one should not add more than 10% of the mother-liquor to the Sabouraud medium. Subsequently 9 ml per tube of the various solutions in the liquid Sabouraud medium are distributed.
(§6) Reference tubes corresponding to the highest solvent concentrations are also prepared.
(§7) Cultures of the various dermatophyte strains on Sabouraud gelose medium are prepared. From 1 to 2 months old cultures, homogeneous suspensions of said cultures in the liquid Sabouraud medium are prepared, the obtained suspensions being stirred in the presence of glass pearls having a light transmission of about 40%.
(§8) One drop of said suspension is introduced in the tubes containing the various concentrations of the compound to be tested.
(§9) at 25°C ± 2°C in the dark
(§10) 10 days of incubation for dermatophytes.

Microsporum felineum = assay: Determination of fungistatic doses, M.f.; assay type: cell-based; settings: liquid Sabouraud medium, 25°C, 10 days
Protocol: as §2, §3, §4, §5, §6, §7, §8, §9, §10

Epidermo flocosum = assay: Determination of fungistatic doses, E.f.; assay type: cell-based; settings: liquid Sabouraud medium, 25°C, 10 days; for MIC: 240 h, read-out: fungistatic dose, E.f.
Protocol: as §2, §3, §4, §5, §6, §7, §8, §9, §10

[2] = tested on: Staphylococcus aureus 209 P; assay: Determination of bacteriostatic doses, S. 209 P; assay type: cell-based; settings: gelose medium, 37°C, 24 hours; for MIC: Staphylococcus aureus, 209P, read-out: bacteriostatic dose, S. 209 P
Protocol: (§11) (5) Method for determining bacteriostatic doses
(§12) A common gelose medium of the following composition is used.
(§13) The pH is adjusted at 7.2 and the medium is sterilized during 30 minutes at 120°C.
(§14) The same method as for the determination of fungistatic doses is used, except that the various dilutions of each compound are added to the gelose medium, the solvent concentration never exceeding 3%. Tubes containing […] of the compounds per ml are prepared.
(§15) Cultures of each strain in the liquid medium are prepared and, after 24 hours of incubation at 37°C, dilutions of these cultures in ordinary broth are prepared as follows:
Staphylococcus aureus 209 P
(§16) By means of these dilutions, scratches of a length of 4 to 5 cm are made on the previously dried surface of the gelose medium to which various amounts of the compound to be tested have been added.

Enterococcus 9790 = assay: Determination of bacteriostatic doses, E. 9790; assay type: cell-based; settings: gelose medium, 37°C, 24 hours; for MIC: Enterococcus, 9790, read-out: bacteriostatic dose, E. 9790
Protocol: as §11, §12, §13, §14, §15, §16

[3] = tested on: Escherichia coli OIII B 4; assay: Determination of bacteriostatic doses, O.III B 4; assay type: cell-based; settings: gelose medium, 37°C, 24 hours
Protocol: as §11, §12, §13, §14, §15
Escherichia coli OIII B 4
as §16

[4] = tested on: Shigella dysenteriae 3410; assay: Determination of bacteriostatic doses, S. 3410; assay type: cell-based; settings: for MIC: Shigella dysenteriae, 3410, 24 h, read-out: bacteriostatic dose, S. 3410
Protocol: as §11, §12, §13, §14, §15
Shigella dysenteriae 3410
as §16

[5] = tested on: Proteus morganii IP 53185; assay: Determination of bacteriostatic doses, P. morg.; assay type: cell-based; settings: gelose medium, 37°C, 24 hours
Protocol: as §11, §12, §13, §14, §15
Proteus morganii IP 53185
as §16

[6] = tested on: Pseudomonas aeruginosa 8194; assay: Determination of bacteriostatic doses, Pseudo 8194; assay type: cell-based; settings: gelose medium, 37°C, 24 hours
Protocol: as §11, §12, §13, §14, §15
Pseudomonas aeruginosa 8194
as §16

Trichomonas vaginalis = assay: Test for trichomonacidal activity; assay type: cell-based; settings: for minimal effective concentration: Trichomonas vaginalis, read-out: Trichomonas vaginalis starting activity
From the text: as §1

bacteria = assay: Activity against bacteria; assay type: cell-based; settings: in words
Protocol: as §11, §12, §13, §14, §15, §16

fungi = assay: Activity against fungi; assay type: cell-based; settings: in words
Protocol: as §2, §3, §4, §5, §6, §7, §8, §9, §10

in vivo [7] = settings: mouse, ip, intraperitoneal administration to mice, read-out: acute toxicity (LD50)
in vivo [8] = settings: mouse, po, orally administered to mice
Protocol: The LD50 of compounds PH 6099 and 5927, when orally administered to mice, is of more than 4000 mg/kg.

Microsporum audouini = assay: Determination of fungistatic doses, M.a.; assay type: cell-based; settings: 240 h, liquid Sabouraud medium, 25°C, 10 days, read-out: fungistatic dose, M.a.
Protocol: as §2, §3, §4, §5, §6, §7, §8, §9, §10

Trichophyton rubrum = assay: Determination of fungistatic doses, T.r.; assay type: cell-based; settings: 240 h, liquid Sabouraud medium, 25°C, 10 days, read-out: fungistatic dose, T.r.
Protocol: as §2, §3, §4, §5, §6, §7, §8, §9, §10

Proteus vulgaris 8181 = assay: Determination of bacteriostatic doses, 8181; assay type: cell-based; settings: gelose medium, 37°C, 24 hours, strain 8181, read-out: bacteriostatic dose, (8181) printed in column P. morg.
Protocol: as §11, §12, §13, §14, §15, §16

[9] = Syphacia obvelata, number of subjects 10

| Compound | Percentage of activity (Syphacia obvelata; [9]) [%] | Number of dead subjects (+) (Syphacia obvelata) | Number of dead subjects (+) (Hymenolepis nana) | Number of subjects from which the parasite has been eradicated (D) (Hymenolepis nana) | Percentage of activity (Hymenolepis nana) [%] | MIC [1] [µg/mL] | MIC (Epidermo flocosum) [µg/mL] | MIC [2] [µg/mL] | also measured |
| --- | --- | --- | --- | --- | --- | --- | --- | --- | --- |
| 2-(2'-trifluoromethyl-3'-methylphenoxyacetamido)-5-nitrothiazole [PH 6306] | 0 | 0 | 0 | 0 | 0 | – | – | – | Entomoeba dysenteriae starting activity (Entomoeba dysenteriae): 5 mμ/ml; Number of subjects from which the parasite has been eradicated (D) (Syphacia obvelata; [9]): 0; fungistatic dose, T.m [1]: 1 µg/mL; fungistatic dose, M.f. (Microsporum felineum): 10 µg/mL; fungistatic dose, E.f. (Epidermo flocosum): 30 µg/mL; bacteriostatic dose, S. 209 P [2]: 10 µg/mL; bacteriostatic dose, E. 9790 (Enterococcus 9790): 100 µg/mL; bacteriostatic dose, O.III B 4 [3]: 0 µg/mL; bacteriostatic dose, S. 3410 ([4]; gelose medium, 37°C, 24 hours): 0 µg/mL; bacteriostatic dose, P. morg. [5]: 0 µg/mL; bacteriostatic dose, Pseudo 8194 [6]: 0 µg/mL |
| O=C(COc1ccccc1)Nc1ncc([N+](=O)[O-])s1 [2-phenoxyacetamido-5-nitro-thiazole] | – | – | – | – | – | – | – | – | activity against Trichomonas vaginalis (Trichomonas vaginalis; in words): no activity; activity against Entomoeba dysenteriae (Entomoeba dysenteriae; in words): no activity; activity against bacteria (bacteria): no activity; activity against fungi (fungi): no activity |
| O=C(COc1ccc(Cl)cc1)Nc1ncc([N+](=O)[O-])s1 [PH 5927] | 30 | 0 | 0 | 0 | 0 | 30 (≈ 95.6 µM) | 10 (≈ 31.9 µM) | 100 (≈ 319 µM) | LD50 (in vivo [7]): > 4500 mg/kg; LD50 (in vivo [8]): > 4000 mg/kg |
| O=C(COc1ccc(Cl)cc1Cl)Nc1ncc([N+](=O)[O-])s1 [PH 6091] | 20 | 0 | 0 | 3 | 30 | 3 (≈ 8.62 µM) | 1 (≈ 2.87 µM) | 3 (≈ 8.62 µM) | MIC (Microsporum felineum; Microsporum, 240 h, read-out: fungistatic dose, M.f.): 30 µg/mL (≈ 86.2 µM) |
| O=C(COc1ccc(Br)cc1)Nc1ncc([N+](=O)[O-])s1 [PH 6092] | 10 | 0 | 0 | 1 | 10 | 100 (≈ 279 µM) | – | 10 (≈ 27.9 µM) | minimal effective concentration (Trichomonas vaginalis): 100 µg/mL |
| Cc1cc(OCC(=O)Nc2ncc([N+](=O)[O-])s2)c(C(C)C)cc1Cl [PH 6099] | 20 | 0 | 0 | 4 | 40 | – | – | 3 (≈ 8.11 µM) | minimal effective concentration (Trichomonas vaginalis): 100 µg/mL; MIC (Microsporum audouini): 0.1 µg/mL (≈ 0.27 µM); MIC (Trichophyton rubrum): 2 µg/mL (≈ 5.41 µM); MIC (Enterococcus 9790): 300 µg/mL (≈ 811 µM); MIC [4]: 300 µg/mL (≈ 811 µM); LD50 (in vivo [7]): ~200 mg/kg; LD50 (in vivo [8]): > 4000 mg/kg |
| O=C(COc1cc(Cl)ccc1Cl)Nc1ncc([N+](=O)[O-])s1 [PH 6159] | 0 | 0 | 0 | 2 | 20 | 30 (≈ 86.2 µM) | – | – | – |
| O=C(COc1ccc(F)cc1)Nc1ncc([N+](=O)[O-])s1 [PH 6160] | 0 | 0 | 0 | 0 | 0 | 4 (≈ 13.5 µM) | 1 (≈ 3.36 µM) | 10 (≈ 33.6 µM) | MIC (Microsporum audouini): 4 µg/mL (≈ 13.5 µM); MIC (Trichophyton rubrum): 4 µg/mL (≈ 13.5 µM); MIC [4]: 100 µg/mL (≈ 336 µM) |
| O=C(COc1cc(C(F)(F)F)cc(C(F)(F)F)c1)Nc1ncc([N+](=O)[O-])s1 [PH 6167] | 40 | 0 | 0 | 7 | 70 | 1 (≈ 2.41 µM) | 1 (≈ 2.41 µM) | 3 (≈ 7.22 µM) | MIC (Enterococcus 9790): 10 µg/mL (≈ 24.1 µM) |
| O=C(COc1c(F)c(F)c(F)c(F)c1F)Nc1ncc([N+](=O)[O-])s1 [PH 6168] | 0 | 0 | 0 | 2 | 20 | 1 (≈ 2.71 µM) | 1 (≈ 2.71 µM) | 10 (≈ 27.1 µM) | MIC (Microsporum audouini): 3 µg/mL (≈ 8.13 µM); MIC (Enterococcus 9790): 10 µg/mL (≈ 27.1 µM); MIC ([3]; Escherichia coli, OIIIB4, read-out: bacteriostatic dose, O.III B 4): 300 µg/mL (≈ 813 µM); MIC [4]: 300 µg/mL (≈ 813 µM); MIC (Proteus vulgaris 8181): 300 µg/mL (≈ 813 µM) |
| Cc1cc(Cl)c(OCC(=O)Nc2ncc([N+](=O)[O-])s2)cc1C [PH 6305] | 10 | 0 | 0 | 0 | 0 | – | – | – | – |
| Cc1cc(OCC(=O)Nc2ncc([N+](=O)[O-])s2)ccc1Cl [PH 6314] | 0 | 0 | 0 | 0 | 0 | – | – | 3 (≈ 9.15 µM) | minimal effective concentration (Trichomonas vaginalis): 2.5 µg/mL |
